# Assay results as given in PMC2923189, “An Oligopeptide Transporter of Mycobacterium tuberculosis Regulates Cytokine Release and Apoptosis of Infected Macrophages” (PLoS ONE, 2010).
# Experiments:
# OppAMTB = molecular target: T1, OppAMTB (Mycobacterium tuberculosis, UniProt P9WGU5)
# T1 construct: gene oppA
# [1] = molecular target: OppA of M. tuberculosis (OppAMTB), substrate-binding polypeptide of the Rv1280c-Rv1283c peptide transporter, recombinant wild type (Mycobacterium tuberculosis) (UniProt P9WGU5); assay: radioligand binding
# Chain of OppA of M. tuberculosis (OppAMTB), substrate-binding polypeptide of the Rv1280c-Rv1283c peptide transporter, recombinant wild type (Mycobacterium tuberculosis) (P9WGU5 57-591): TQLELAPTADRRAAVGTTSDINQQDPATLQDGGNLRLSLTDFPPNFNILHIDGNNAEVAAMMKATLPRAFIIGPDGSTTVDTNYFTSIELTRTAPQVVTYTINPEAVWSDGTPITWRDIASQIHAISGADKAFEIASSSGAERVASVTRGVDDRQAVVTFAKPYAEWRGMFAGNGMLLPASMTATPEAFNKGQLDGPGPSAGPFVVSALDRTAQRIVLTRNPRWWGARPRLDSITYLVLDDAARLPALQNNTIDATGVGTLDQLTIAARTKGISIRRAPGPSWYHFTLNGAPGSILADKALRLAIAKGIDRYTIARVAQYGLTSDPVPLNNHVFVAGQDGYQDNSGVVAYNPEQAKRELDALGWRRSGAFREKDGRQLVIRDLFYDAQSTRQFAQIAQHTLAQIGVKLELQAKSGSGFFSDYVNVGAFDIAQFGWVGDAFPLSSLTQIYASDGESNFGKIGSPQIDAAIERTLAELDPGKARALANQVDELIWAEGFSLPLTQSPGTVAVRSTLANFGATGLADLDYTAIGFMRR
# T1 sequence (P9WGU5 57-591): as above
Compound,% GSH binding with 1 mM competitor (OppAMTB),amount bound at 1 mM GSH (pmol GSH/mg protein) [1]
N[C@@H](CCC(=O)N[C@@H](CS)C(=O)O)C(=O)O [glu-cys],dipeptide glu-cys was a more efficient competitor of GSH binding than the peptide cys-gly,
N[C@@H](CS)C(=O)NCC(=O)O [cys-gly],dipeptide glu-cys was a more efficient competitor of GSH binding than the peptide cys-gly,
glutathione (tripeptide),,146
